Data from patent publication US7083932B1, “Nucleic acid molecules encoding peptides having pronociceptive properties” (Euroscreen, s.a., priority 1995, dated 2006).
Counter-ions that a name gives are not always drawn. Ends that are not written are not given here.

How the values were obtained:
[1] = tested on: mice; assay: antagonism of nociceptin-induced stimulation of horizontal locomotor activity; format: in vivo
[2] = tested on: mice; assay: hole board test; format: in vivo; details: 5 mg/kg s.c., tested 15 minutes later; saline 150±8
[3] = biological target: ORL1 receptor (Homo sapiens, UniProt P41146); assay: cell-based
Sequence of ORL1 receptor (P41146 whole entry): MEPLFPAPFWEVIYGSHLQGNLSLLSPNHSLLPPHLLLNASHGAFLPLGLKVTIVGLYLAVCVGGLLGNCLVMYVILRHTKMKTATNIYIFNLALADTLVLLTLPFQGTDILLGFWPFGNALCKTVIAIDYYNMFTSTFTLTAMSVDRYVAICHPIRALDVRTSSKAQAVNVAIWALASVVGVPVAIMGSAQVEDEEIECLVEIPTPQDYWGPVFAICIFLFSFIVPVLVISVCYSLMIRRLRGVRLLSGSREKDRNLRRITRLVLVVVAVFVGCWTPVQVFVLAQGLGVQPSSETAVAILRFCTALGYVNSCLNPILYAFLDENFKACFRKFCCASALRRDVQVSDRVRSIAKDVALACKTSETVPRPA

[4] = tested on: CHO(ORL1−) cells; format: cell-based

## C=CCN1CC[C@]23c4c5ccc(O)c4O[C@H]2C(=O)CC[C@@]3(O)[C@H]1C5 [Naloxone, Naloxone hydrochloride]
[1]; 0.0–4.5 mg/kg s.c., 10 minutes before i.c.v. nociceptin, first 10 minutes of testing
  effect on motor-stimulant effect of 100 ng nociceptin: did not suppress

## O=C(CCCN1CCC(O)(c2ccc(Cl)cc2)CC1)c1ccc(F)cc1 [haloperidol]
[1]; increasing doses of antagonist
  antagonism of nociceptin stimulation of locomotor activity: antagonized

## CN1CC[C@]23c4c5ccc(O)c4O[C@H]2[C@@H](O)C=C[C@H]3[C@H]1C5 [morphin]
[2]
  Number of explored holes during the 20 minutes period: 24±2

## YGGFTGARKSARKLANQ [^1Tyr analogue]
[3]
  IC50: 1 nM
  maximal inhibition of forskolin-induced cAMP accumulation: > 90%
[4]
  activity on cyclase in wild type cells: totally inactive
